Measurements from ChEMBL document CHEMBL1128304, “The synthesis of N-hydroxy-N'-phenyloctanediamide and its inhibitory effect on proliferation of AXC rat prostate cancer cells” (1995).

Experiments:
[1] = system: Erythroleukemia cell line; experiment: Percent of murine erythroleukemia cells that became benzidine reactive after administration (2.5 uM); type: functional, Mus musculus
HL-60 = experiment: Percent of HL-60 cells (from human acute promyelocytic leukemia) to develop the ability to reduce nitroblue tetrazolium after administration (1 uM); type: functional; set-up: scale not given: the % may be the effect or the level left
T/5 = experiment: Tested for morphological alterations in T/5 cells after administration along with DMSO (0.1%); type: functional, cell-based; conditions: Rattus norvegicus

**Q.** How did the Activity [1] turn out when `O=C(CCCCCCC(=O)Nc1ccccc1)NO` [VORINOSTAT] was run?
**A.** 70%

**Q.** And the Activity (HL-60)?
**A.** 21%

**Q.** And the Activity (T/5)?
**A.** No morphological alterations observed
